The values below come from patent publication US20090306051A1, “Methods and compositions for the treatment of epilepsy, seizure disorders, and other CNS disorders” (priority 2004, published 2009).

The conditions of data set [1]: cited from earlier work; for T½: as printed in head of release profile table, Example 3.
The conditions of data set [2]: FIG. 2A, IR administration (memantine 20 mg bid, lamotrigine 200 mg qd); cited from earlier work.
A short description of data set [3]: Release profile (cumulative fraction released from formulation matrix to serum or gut environment). It counts as physicochemical.
In another data set the test system is mouse electroshock model. The experiment in a line: Dose ranging study in seizure model (mouse electroshock model). It counts as in vivo. Particulars: seizure model (e.g., mouse electroshock model). From the text:
An isobolic experiment ensues where the drugs are combined in fractions of their EDXXs to add up to ED100 (i.e., ED50:ED50, ED25:ED75, etc.). The plot of the data is constructed. The experiment points that lie below the straight line between the ED50 points on the graph are indicative of synergy, points on the line are indicative of additive effects, and points above the line are indicative of inhibitory effects. The point of maximum deviation from the isobolic line is the optimal ratio. This is the optimal steady state ratio (Cratio,ss) and is adjusted based upon the component half-lives. Similar protocols may be applied in a wide variety of validated animal models.

Like-named read-outs stand apart in the source and are kept apart here.

A word on the Tmax: it is the time at which the peak concentration occurs. As to `NCC1(CC(=O)O)CCCCC1` [Gabapentin], in data set [1] (humans), the “Human PK (t½)” value was 6 h and the time to peak (Tmax) is 3 h.
Take `Nc1nnc(-c2cccc(Cl)c2Cl)c(N)n1` [Lamotrigine]: in data set [2], the Tmax was 2 h and the T½ was 12 h. Moreover, in data set [1] (humans), the “Human PK (t½)” value is 12 h and the time to peak (Tmax) is 2 h.
In the case of `CC12CC3CC(C)(C1)CC(N)(C3)C2` [Memantine, 1-amino-3,5-dimethyladamantane], the cum. fraction in data set [3] (Time 1) stood at 0.2; in data set [3] (Time 2), 0.3; in data set [3] (Time 4), 0.4; in data set [3] (Time 8), 0.5; in data set [3] (Time 12), 0.6; in data set [3] (Time 16), 0.7. Also, the cum. fraction in data set [3] (Time 20) is on record as 0.8; in data set [3] (Time 24) it was 0.9. The time of peak concentration (Tmax) in data set [2] was 3 h. For the same compound, the ED50 entry with mouse electroshock model was “approximately 12 μM”. In addition, the T½ result in data set [1] was “MEMANTINE T½ = 60 hrs”.
In the case of `NC(=O)N1c2ccccc2CC(=O)c2ccccc21` [Oxcarbazepine], in data set [1] (humans), the “Human PK (t½) in hrs” value is 2 hr for hrs and the Tmax is 4.5 h.
With `CC1(C)O[C@@H]2[C@@H](CO[C@@]3(COS(N)(=O)=O)OC(C)(C)O[C@@H]23)O1` [Topiramate], the ED50 result in the data set with mouse electroshock model was “approximately 5 μM”. Besides, in data set [1] (humans), the “Human PK (t½)” value is 21 h and the Tmax was 2 h.
For `NS(=O)(=O)Cc1noc2ccccc12` [Zonisamide], the cum. fraction in data set [3] (Time 1) is 0.2; in data set [3] (Time 2) it was 0.3; in data set [3] (Time 4), 0.4; in data set [3] (Time 8), 0.5; in data set [3] (Time 12), 0.6; in data set [3] (Time 16), 0.7. The cum. fraction in data set [3] (Time 20) is recorded as 0.8; in data set [3] (Time 24), 0.9. The T½ entry in data set [1] is given as “ZONISAMIDE T½ = 60 hrs”. Also, the “Human PK (t½)” value in data set [1] (humans) is 63 h. Moreover, in data set [1] (humans), the Tmax is 4 h.
